Laboratory results from patent publication US9193717B2, “Mineralocorticoid receptor antagonists” (Merck Sharp & Dohme Corp., priority 2011, dated 2015).

target: T1, full-length human Mineralocorticoid Receptor (MR) (Homo sapiens, UniProt P08235); test: human MR NH Pro assay (PathHunter Protein:Protein interaction assay, MR antagonism); assay type: cell-based; settings: PathHunter CHO-K1 cells that overexpress human MR; aldosterone (0.3 nM), 6 hours at 37° C.; antagonist mode; read-out: IC50 rating
T1 construct: full-length human Mineralocorticoid Receptor (MR); host or cells: PathHunter CHO-K1 cells
T1 sequence (P08235 1-984): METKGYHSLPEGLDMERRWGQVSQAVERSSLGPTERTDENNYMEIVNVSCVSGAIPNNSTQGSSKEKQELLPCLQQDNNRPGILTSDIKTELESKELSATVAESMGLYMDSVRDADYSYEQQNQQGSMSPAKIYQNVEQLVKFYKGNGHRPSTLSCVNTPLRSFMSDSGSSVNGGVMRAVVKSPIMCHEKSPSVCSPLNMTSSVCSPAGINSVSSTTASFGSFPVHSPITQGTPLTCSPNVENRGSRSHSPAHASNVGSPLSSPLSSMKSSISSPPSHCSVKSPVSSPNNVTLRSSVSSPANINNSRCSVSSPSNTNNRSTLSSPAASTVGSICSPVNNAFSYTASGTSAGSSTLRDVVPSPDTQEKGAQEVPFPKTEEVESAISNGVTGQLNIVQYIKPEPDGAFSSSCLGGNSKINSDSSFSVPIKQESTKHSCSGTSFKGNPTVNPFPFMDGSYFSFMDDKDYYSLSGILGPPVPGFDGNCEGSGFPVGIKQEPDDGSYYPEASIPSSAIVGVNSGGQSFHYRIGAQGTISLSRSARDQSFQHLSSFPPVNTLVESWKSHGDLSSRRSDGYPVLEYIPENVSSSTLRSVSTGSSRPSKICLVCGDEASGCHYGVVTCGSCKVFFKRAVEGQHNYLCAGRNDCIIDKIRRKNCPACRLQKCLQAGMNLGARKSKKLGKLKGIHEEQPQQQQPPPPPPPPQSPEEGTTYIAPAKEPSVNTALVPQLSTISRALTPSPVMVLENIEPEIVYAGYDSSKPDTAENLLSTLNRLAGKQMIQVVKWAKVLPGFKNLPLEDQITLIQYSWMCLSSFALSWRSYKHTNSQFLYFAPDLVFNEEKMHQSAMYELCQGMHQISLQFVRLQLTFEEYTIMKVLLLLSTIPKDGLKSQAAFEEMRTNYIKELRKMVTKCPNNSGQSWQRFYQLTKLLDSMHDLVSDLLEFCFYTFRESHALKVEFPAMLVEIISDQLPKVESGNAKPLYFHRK
Protocol: The activity of the compounds of the present invention regarding mineralocorticoid receptor antagonism was evaluated using the following assay.
Assessment of Mr Potency in HMR NH Pro Assay
The human MR NH Pro assay is a commercially available PathHunter™ Protein:Protein interaction assay (DiscoveRx; http://www.discoverx.com/nhrs/prod-nhrs.php) that measures the ability of compounds to antagonize full-length human Mineralocorticoid Receptor (MR) binding to a coactivator peptide. PathHunter™ CHO—K1 cells that overexpress human MR (Cat #93-0456C2, Lot No: 09B0913) were cultured in growth media (F12K w/Glutamine and phenol red (Gibco 11765-047) supplemented with 10% HI FBS (Gibco 16000); 0.25 mg/ml Hygromycin in PBS (Invitrogen 10687-010, 50 mg/ml); 100 I.U./mL and 100 μg/mL Pen/Strep (Gibco 15140-122); 0.6 mg/mL Geneticin).
Compounds were assessed for MR antagonist activity by incubating the cells with a titrating dose of compound in F12K w/Glutamine and phenol red culture media (Invitrogen 11765-047) supplemented with 1% Charcoal/Dextran Treated FBS (Hyclone #SH30068.01) and aldosterone (0.3 nM) for 6 hours at 37° C. […] Growth Media: • F12K w/Glutamine and phenol red (Gibco 11765-047) • 10% HI FBS (Gibco 16000) • 0.25 mg/ml Hygromycin in PBS (Invitrogen 10687-010, 50 mg/ml) • 100 I.U./mL and 100 μg/mL Pen/Strep (Gibco 15140-122) • 0.6 mg/mL Geneticin (Gibco 10131, 50 mg/ml) • 2. Assay Media: • F12K w/Glutamine and phenol red (Invitrogen 11765-047) • 1% Charcoal/Dextran Treated FBS (Hyclone #SH30068.01) • 3. 3× PathHunter Detection Reagents (Cat#93-0001) (need ˜6 ml/plate). […] Control Agonist:Aldosterone:Sigma cat# A9477 • Prepare stock solution-10 μM in DMSO kept at −20° C. • for assay, dilute in assay media to 1.8 or 6 nM (6× of final concentration=about 0.3 nM to about 1.0 nM) • 5. Cell line: PathHunter CHO—K1 MR cells Cat #93-0456C2, Lot No: 09B0913, from operation liquid nitrogen stock. • 6. Control Antagonist:Spironolactone:Sigma #S-3378 and Eplerenone Sigma #107724-20-9 (10 mM stock concentration also prepared in DMSO and stored at −20° C.). • Methods: • Assay Set up and Calculations: • 1. Cells were grown in F12+FBS+Hygromycin+pen/strep+Genetin • 2. Cells were collected with 0.05% trypsin and the cell suspension was spun and resuspended in a volume of F12+1.5% CD-FBS and counted. • 3. The cells were resuspended to 4×10^5 cells/mL. • 4. Cells were (25 μL/well) added to the wells of a 384 well plate. • 5. The plate was then incubated at 37° C. over night in a humidified incubator with 5% CO2. • 6. Test compounds were titrated starting at 4.4 mM, 10-point titration in 1:3 dilution. • 7. Aldosterone was diluted in assay media to 1.8 nM or 6 nM from 10 μM stock (final concentration to be about 0.3 nM to about 1.0 nM). • Protocol for 384 Well Plate Format: 6 Hr Treatment: • 1. Plated 10K exponentially growing cells/well (25 μL) resuspended in assay media to each well using the Multidrop (Thermo Electron) (use white wall, clear bottom assay plates (Costar #3570) and incubate overnight at 37° C., 5% CO2. • 2. 0.25 μL 120× test compound (final DMSO concentration should be <1%) was added to each well n=2, 10 point titrations starting at 36.7 μM final concentration. • 3. 5 μL 6× agonist (final aldosterone concentration should be about 0.3 nM to about 1.0 nM) was added to all wells using the PlateMate Plus.
(ThermoFisher) (except those wells in columns 23 and 24) • 4. 5 μL of assay media was added to all wells in column 23 and 24. • 5. Plates were incubated 6 hrs at 37° C., 5% CO2. • 6. 15 μL 3× DiscoveRx detection reagent was added to each well. • 7. Plates were incubated for 1 hour at room temperature (plates stored in the dark). • 8. Plates were read on Envision (PerkinElmer) luminesence plate reader and analyzed using ADA.

Row | Structure (SMILES) | IC50 [nM]
1 | C[C@H](C1CCCCC1)N1C(=O)O[C@](Cc2ccccc2)(c2nc3ccc(Cl)cc3[nH]2)C1=O [Compound 12, (5R)-5-Benzyl-5-(5-chloro-1H-benzimidazol-2-yl)-3-[(1R)-1-cyclohexylethyl]-1,3-oxazolidine-2,4-dione] | < 100
2 | C[C@H](c1ccc(F)cc1)N1C(=O)O[C@](Cc2ccccc2)(c2nc3c(-c4cccnc4)cccc3[nH]2)C1=O [Compound 36, (5R)-5-Benzyl-3-[(1R)-1-(4-fluorophenyl)ethyl]-5-(4-pyridin-3-yl-1H-benzimidazol-2-yl)-1,3-oxazolidine-2,4-dione] | 100 to 500
3 | C[C@H](c1ccc(F)cc1)N1C(=O)O[C@](Cc2ccccc2)(c2nc3cc(Cl)ccc3[nH]2)C1=O [Compound 1, (5R)-5-Benzyl-5-(5-chloro-1H-benzimidazol-2-yl)-3-[(1R)-1-(4-fluorophenyl)ethyl]-1,3-oxazolidine-2,4-dione] | 100 to 500
4 | C[C@H](c1ccc(F)cc1)N1C(=O)O[C@](Cc2ccccc2)(c2nc3c(Cl)cccc3[nH]2)C1=O [Compound 20, 5-Benzyl-5-(4-chloro-1H-benzimidazol-2-yl)-3-[(1R)-1-(4-fluorophenyl)ethyl]-1,3-oxazolidine-2,4-dione] | 100 to 500
5 | O=C1O[C@](Cc2ccc(F)cc2)(c2nc3ccc(Cl)cc3[nH]2)C(=O)N1[C@@H]1CCc2ccccc21 [Compound 17, 5-(6-Chloro-1H-benzimidazol-2-yl)-3-[(1R)-2,3-dihydro-1H-inden-1-yl]-5-(4-fluorobenzyl)-1,3-oxazolidine-2,4-dione] | 100 to 500
6 | CC(C1CCC(F)(F)CC1)N1C(=O)O[C@](Cc2ccccc2)(c2nc3ccc(Cl)cc3[nH]2)C1=O (stereo partly drawn) [Compound 11, (5R)-5-Benzyl-5-(6-chloro-1H-benzimidazol-2-yl)-3-[1-(4,4-difluorocyclohexyl)ethyl]-1,3-oxazolidine-2,4-dione] | < 100
7 | C[C@H](c1ccc(F)cc1)N1C(=O)O[C@](Cc2ccccc2)(c2nc3cc(F)ccc3[nH]2)C1=O [Compound 2, (5R)-5-Benzyl-5-(5-fluoro-1H-benzimidazol-2-yl)-3-[(1R)-1-(4-fluorophenyl)ethyl]-1,3-oxazolidine-2,4-dione] | 100 to 500
8 | C[C@H](c1ccc(F)cc1)N1C(=O)O[C@](Cc2ccccc2)(c2nc3c(-c4ccncc4)cccc3[nH]2)C1=O [Compound 34, (5R)-5-Benzyl-3-[(1R)-1-(4-fluorophenyl)ethyl]-5-(4-pyridin-4-yl-1H-benzimidazol-2-yl)-1,3-oxazolidine-2,4-dione] | 100 to 500
9 | C[C@H](c1ccc(F)cc1)N1C(=O)O[C@](Cc2ccccc2)(c2nc3cc(-c4cncc(F)c4)ccc3[nH]2)C1=O [Compound 28, (5R)-5-Benzyl-3-[(1R)-1-(4-fluorophenyl)ethyl]-5-[5-(5-fluoro-pyridin-3-yl)-1H-benzimidazol-2-yl]-1,3-oxazolidine-2,4-dione] | < 100
10 | COC(=O)c1ccc2nc([C@@]3(Cc4ccccc4)OC(=O)N([C@H](C)c4ccc(F)cc4)C3=O)[nH]c2c1 [Compound 5, Methyl 2-{(5R)-5-benzyl-3-[(1R)-1-(4-fluorophenyl)ethyl]-2,4-dioxo-1,3-oxazolidin-5-yl}-1H-benzimidazole-5-carboxylate] | 100 to 500
11 | C[C@H](c1ccc(F)cc1)N1C(=O)O[C@](Cc2ccccc2)(c2nc3cc(F)c(F)cc3n2C)C1=O [Compound 37, (5R)-5-Benzyl-5-(5,6-difluoro-1-methyl-1H-benzimidazol-2-yl)-3-[(1R)-1-(4-fluorophenyl)ethyl]-1,3-oxazolidine-2,4-dione] | 100 to 500
12 | C[C@H](C1CCCCC1)N1C(=O)O[C@](Cc2ccc(F)cc2)(c2nc3ccc(C#N)cc3[nH]2)C1=O [Compound 18, 2-{3-[(1R)-1-Cyclohexylethyl]-5-(4-fluorobenzyl)-2,4-dioxo-1,3-oxazolidin-5-yl}-1H-benzimidazole-5-carbonitrile] | 100 to 500
13 | C[C@H](c1ccc(F)cc1)N1C(=O)O[C@](Cc2ccccc2)(c2nc3cc(C(F)(F)F)ccc3[nH]2)C1=O [Compound 8, (5R)-5-Benzyl-3-[(1R)-1-(4-fluorophenyl)ethyl]-5-[5-(trifluoromethyl)-1H-benzimidazol-2-yl]-1,3-oxazolidine-2,4-dione] | < 100
14 | C[C@H](c1ccc(F)cc1)N1C(=O)O[C@](Cc2ccccc2)(c2nc3cc(-c4cc[nH]n4)ccc3[nH]2)C1=O [Compound 27, (5R)-5-Benzyl-3-[(1R)-1-(4-fluorophenyl)ethyl]-5-[5-(1H-pyrazol-5-yl)-1H-benzimidazol-2-yl]-1,3-oxazolidine-2,4-dione] | 100 to 500
15 | C[C@H](c1ccc(F)cc1)N1C(=O)O[C@](Cc2ccccc2)(c2nc3cc(OC(F)(F)F)ccc3[nH]2)C1=O [Compound 4, (5R)-5-Benzyl-3-[(1R)-1-(4-fluorophenyl)ethyl]-5-[5-(trifluoromethoxy)-1H-benzimidazol-2-yl]-1,3-oxazolidine-2,4-dione] | 100 to 500
16 | Cc1noc(C)c1-c1ccc2[nH]c([C@@]3(Cc4ccccc4)OC(=O)N([C@H](C)c4ccc(F)cc4)C3=O)nc2c1 [Compound 23, (5R)-5-Benzyl-5-[5-(3,5-dimethylisoxazol-4-yl)-1H-benzimidazol-2-yl]-3-[(1R)-1-(4-fluorophenyl)ethyl]-1,3-oxazolidine-2,4-dione] | < 100

same assay, conditions: Table 3; PathHunter CHO-K1 cells that overexpress human MR; aldosterone (0.3 nM), 6 hours at 37° C.; antagonist mode; read-out: IC50

Row | Structure (SMILES) | IC50 [nM]
17 | CCCCCC[C@@H](C)N1C(=O)O[C@](Cc2ccccc2)(c2nc3cc(NS(C)(=O)=O)ccc3[nH]2)C1=O [Example 42, N-(2-((R)-5-benzyl-3-((R)-octan-2-yl)-2,4-dioxooxazolidin-5-yl)-1H-benzo[d]imidazol-5-yl)methanesulfonamide] | 500 to 2000
